Assays:
[1] = molecular target: Cyclin-dependent kinase 14 (Homo sapiens) (UniProt O94921); experiment: Inhibition of wild-type human full length PFTAIRE1 (M1 to H451 residues) expressed in bacterial expression system assessed as residual activity at 50 nM by Kinomescan method relative to control
[2] = molecular target: Serine/threonine-protein kinase D3 (Homo sapiens) (UniProt O94806); experiment: Inhibition of wild-type human partial length PKD3 (S543 to E863 residues) expressed in bacterial expression system assessed as residual activity at 50 nM by Kinomescan method relative to control
[3] = molecular target: Muscle, skeletal receptor tyrosine-protein kinase (Homo sapiens) (UniProt O15146); experiment: Inhibition of wild-type human partial length MUSK (M553 to V869 residues) expressed in bacterial expression system assessed as residual activity at 50 nM by Kinomescan method relative to control
[4] = molecular target: Proto-oncogene tyrosine-protein kinase receptor Ret (Homo sapiens) (UniProt P07949); experiment: Inhibition of wild-type human partial length RET (E713 to D1014 residues) expressed in bacterial expression system assessed as residual activity at 50 nM by Kinomescan method relative to control
[5] = molecular target: Insulin receptor (Homo sapiens) (UniProt P06213); experiment: Inhibition of wild-type human partial length INSR (P997 to E1318 residues) expressed in mammalian expression system assessed as residual activity at 50 nM by Kinomescan method relative to control
[6] = molecular target: Serine/threonine-protein kinase PLK1 (Homo sapiens) (UniProt P53350); experiment: Inhibition of wild-type human partial length PLK1 (A33 to F325 residues) expressed in mammalian expression system assessed as residual activity at 50 nM by Kinomescan method relative to control
[7] = molecular target: Serine/threonine-protein kinase 38 (Homo sapiens) (UniProt Q15208); experiment: Inhibition of wild-type human partial length NDR1 (N33 to E449 residues) expressed in mammalian expression system assessed as residual activity at 50 nM by Kinomescan method relative to control
[8] = molecular target: MAP/microtubule affinity-regulating kinase 3 (Homo sapiens) (UniProt P27448); experiment: Inhibition of wild-type human full length MARK3 (M1 to L729 residues) expressed in bacterial expression system assessed as residual activity at 50 nM by Kinomescan method relative to control
[9] = molecular target: Mitogen-activated protein kinase kinase kinase 19 (Homo sapiens) (UniProt Q56UN5); experiment: Inhibition of wild-type human partial length YSK4 (T1019 to H1328 residues) expressed in mammalian expression system assessed as residual activity at 50 nM by Kinomescan method relative to control
[10] = molecular target: Tyrosine-protein kinase JAK1 (Homo sapiens, UniProt P23458); experiment: Inhibition of human JAK1 (V856 to K1154 residues) expressed in bacterial expression system assessed as residual activity at 50 nM by KINOMEscan assay relative to control
[11] = molecular target: Serine/threonine-protein kinase pim-1 (Homo sapiens) (UniProt P11309); experiment: Inhibition of wild-type human partial length PIM1 (A15 to K313 residues) expressed in bacterial expression system assessed as residual activity at 50 nM by Kinomescan method relative to control
[12] = molecular target: NUAK family SNF1-like kinase 2 (Homo sapiens) (UniProt Q9H093); experiment: Inhibition of human NUAK2 (P22 to A333 residues) expressed in mammalian expression system assessed as residual activity at 50 nM by KINOMEscan assay relative to control
[13] = molecular target: Calcium/calmodulin-dependent protein kinase type II subunit gamma (Homo sapiens) (UniProt Q13555); experiment: Inhibition of wild-type human partial length CAMK2G (R9 to A303 residues) expressed in bacterial expression system assessed as residual activity at 50 nM by Kinomescan method relative to control
[14] = molecular target: Misshapen-like kinase 1 (Homo sapiens) (UniProt Q8N4C8); experiment: Inhibition of wild-type human partial length MINK (M1 to K312 residues) expressed in mammalian expression system assessed as residual activity at 50 nM by Kinomescan method relative to control
[15] = molecular target: Wee1-like protein kinase 2 (Homo sapiens) (UniProt P0C1S8); experiment: Inhibition of wild-type human partial length WEE1B (M204 to K492 residues) expressed in bacterial expression system assessed as residual activity at 50 nM by Kinomescan method relative to control
[16] = molecular target: Mitogen-activated protein kinase 11 (Homo sapiens) (UniProt Q15759); experiment: Inhibition of wild-type human full length p38-beta (M1 to Q364 residues) expressed in bacterial expression system assessed as residual activity at 50 nM by Kinomescan method relative to control
[17] = molecular target: Mitogen-activated protein kinase 4 (Homo sapiens) (UniProt P31152); experiment: Inhibition of wild-type human partial length ERK4 (M1 to L365 residues) expressed in bacterial expression system assessed as residual activity at 50 nM by Kinomescan method relative to control
[18] = molecular target: Serine/threonine-protein kinase Nek4 (Homo sapiens) (UniProt P51957); experiment: Inhibition of wild-type human full length NEK4 (M1 to F841 residues) expressed in mammalian expression system assessed as residual activity at 50 nM by Kinomescan method relative to control
[19] = molecular target: Serine/threonine-protein kinase D2 (Homo sapiens) (UniProt Q9BZL6); experiment: Inhibition of wild-type human partial length PKD2 (A519 to E838 residues) expressed in bacterial expression system assessed as residual activity at 50 nM by Kinomescan method relative to control
[20] = molecular target: ALK tyrosine kinase receptor (Homo sapiens) (UniProt Q9UM73); experiment: Inhibition of wild-type human partial length ALK (I1088 to E1409 residues) expressed in mammalian expression system assessed as residual activity at 50 nM by Kinomescan method relative to control
[21] = molecular target: Serine/threonine-protein kinase ULK2 (Homo sapiens) (UniProt Q8IYT8); experiment: Inhibition of wild-type human partial length ULK2 (M1 to S301 residues) expressed in mammalian expression system assessed as residual activity at 50 nM by Kinomescan method relative to control
[22] = molecular target: Serine/threonine-protein kinase SBK1 (Homo sapiens) (UniProt Q52WX2); experiment: Inhibition of wild-type human partial length SBK1 (P23 to P348 residues) expressed in mammalian expression system assessed as residual activity at 50 nM by Kinomescan method relative to control
[23] = molecular target: Receptor-type tyrosine-protein kinase FLT3 (Homo sapiens) (UniProt P36888); experiment: Inhibition of wild-type human partial length FLT3 (V592 to Y969 residues) expressed in bacterial expression system assessed as residual activity at 50 nM by Kinomescan method relative to control
[24] = molecular target: Mitogen-activated protein kinase 1 (Homo sapiens) (UniProt P28482); experiment: Inhibition of wild-type human full length ERK2 (M1 to S360 residues) expressed in bacterial expression system assessed as residual activity at 50 nM by Kinomescan method relative to control
[25] = molecular target: Dual specificity tyrosine-phosphorylation-regulated kinase 1A (Homo sapiens) (UniProt Q13627); experiment: Inhibition of wild-type human partial length DYRK1A (H129 to S509 residues) expressed in mammalian expression system assessed as residual activity at 50 nM by Kinomescan method relative to control

Compound	Activity [1]	Activity [2]	Activity [3]	Activity [4]	Activity [5]	Activity [6]	Activity [7]	Activity [8]	Activity [9]	Activity [10]	Activity [11]	Activity [12]	Activity [13]	Activity [14]	Activity [15]	Activity [16]	Activity [17]	Activity [18]	Activity [19]	Activity [20]	other results
CC1(C)[C@H](Nc2c(C(N)=O)cnn3cc(-c4ccccc4)cc23)CC[C@]1(C)N	83%	96%	43%	100%	94%	94%	92%	68%	100%	1.4%	96%	2.7%	91%	100%	73%	78%	100%	52%	100%	100%	Activity [21]: 36%; Activity [22]: 100%; Activity [23]: 72%; Activity [24]: 82%; Activity [25]: 73%
COc1ccc(-c2cc3c(N[C@@H]4CC[C@](C)(N)C4(C)C)c(C(N)=O)cnn3c2)cn1	100%	73%	90%	92%	72%	100%	99%	100%	98%	9%	93%	7%	90%	96%	98%	80%	100%	100%	100%	94%	Activity [21]: 75%; Activity [22]: 72%; Activity [23]: 90%; Activity [24]: 100%; Activity [25]: 100%

From ChEMBL document CHEMBL4052645, “Discovery of potent and efficacious pyrrolopyridazines as dual JAK1/3 inhibitors” (Bioorg Med Chem Lett, 2017)
